Data published in publication PMC4289024 (Journal of Medicinal Chemistry, 2014).

Legend:
293T cells [1] = experiment: Western blot of 293T cells treated with inhibitors; assay type: cell-based, human
293T cells [2] = details: 30 min; cited from earlier work

SMILES: CCc1cncnc1N1CCN(Cc2nc3ccc(C(F)(F)F)cc3[nH]2)CC1 [PF-4708671]
- phosphorylation of AKT (pAKT) (293T cells [1]; 3 and 16 h of treatment): no effect on the phosphorylation of AKT
- phosphorylation of S6 (293T cells [1]; 3 h time point): modest decrease in phosphorylation of S6
- phosphorylation of S6 (293T cells [1]; 16 h time point): returned to near basal levels
- S6 phosphorylation (293T cells [2]): significant reduction in S6 phosphorylation

SMILES: COc1ccc(-c2ccc3c(N4CCOC[C@@H]4C)nc(N4CCOC[C@@H]4C)nc3n2)cc1CO [AZD8055]
- phosphorylation of AKT (pAKT) (293T cells [1]; 3 and 16 h of treatment): decrease in pAKT at T308 and S473
- phosphorylation of S6 (pS6 levels) (293T cells [1]; 3 and 16 h of treatment): significant decrease in pS6 levels at both the S235 and S240 sites
